Biological target: T1, Protein tyrosine phosphatase 1B (PTP1B) (Homo sapiens, UniProt P18031)
T1 sequence (P18031 1-301): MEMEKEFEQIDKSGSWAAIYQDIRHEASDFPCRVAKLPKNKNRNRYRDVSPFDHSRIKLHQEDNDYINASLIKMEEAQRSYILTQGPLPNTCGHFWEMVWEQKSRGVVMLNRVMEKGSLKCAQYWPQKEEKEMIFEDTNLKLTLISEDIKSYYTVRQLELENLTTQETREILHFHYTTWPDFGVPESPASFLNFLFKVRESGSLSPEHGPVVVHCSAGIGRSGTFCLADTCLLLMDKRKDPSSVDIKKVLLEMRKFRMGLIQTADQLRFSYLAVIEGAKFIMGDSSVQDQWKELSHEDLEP

O=[N+]([O-])c1ccc(OP(=O)(O)O)cc1 [pNPP, p-nitrophenyl phosphate]
Km: 2800 ± 100 µM

— PMC5292209 (Biochemistry, 2016)
